Results published in ChEMBL document CHEMBL4257529, “Antifungal amphiphilic kanamycins: new life for an old drug” (Medchemcomm, 2018).
≈ marks a conversion by molar mass, not a printed value.

Columns and labels:
[1] = system: Fusarium graminearum; assay: Antifungal activity against Fusarium graminearum by microbroth dilution assay; type: functional
[2] = system: Fusarium graminearum; assay: Antifungal activity against Fusarium graminearum after 12 to 18 hrs; type: functional
[3] = system: Escherichia coli; assay: Antibacterial activity against Escherichia coli ATCC 25922 after 12 to 18 hrs; type: functional
[4] = system: Staphylococcus aureus; assay: Antibacterial activity against Staphylococcus aureus ATCC 25923 after 12 to 18 hrs; type: functional
[5] = system: Aspergillus flavus; assay: Antifungal activity against Aspergillus flavus after 12 to 18 hrs; type: functional
[6] = system: Fusarium graminearum; assay: Antifungal activity against Fusarium graminearum infected in wheat plant assessed as contamination of wheat heads and kernels with deoxynivalenol at 5.5 ml/L (reference value: 1.2 ppm); type: functional
[7] = system: Fusarium graminearum; assay: Antifungal activity against Fusarium graminearum infected in wheat plant assessed as contamination of wheat heads and kernels with deoxynivalenol at 2.8 ml/L (reference value: 1.2 ppm); type: functional
[8] = system: Fusarium graminearum; assay: Antifungal activity against Fusarium graminearum infected in wheat plant assessed as contamination of wheat heads and kernels with deoxynivalenol at 4 ml/L (reference value: 1.2 ppm); type: functional
[9] = system: Fusarium graminearum; assay: Antifungal activity against Fusarium graminearum infected in wheat plant assessed as contamination of wheat heads and kernels with deoxynivalenol at 8 ml/L (reference value: 1.2 ppm); type: functional
[10] = system: Fusarium oxysporum; assay: Antifungal activity against Fusarium oxysporum by microbroth dilution assay; type: functional
[11] = system: Escherichia coli; assay: Antibacterial activity against Escherichia coli TG1 by microbroth dilution assay; type: functional
[12] = system: Saccharomyces cerevisiae; assay: Antifungal activity against Saccharomyces cerevisiae W303 by microbroth dilution assay; type: functional
[13] = system: Candida albicans; assay: Antifungal activity against Candida albicans by microbroth dilution assay; type: functional
[14] = system: Rhodotorula mucilaginosa; assay: Antifungal activity against Rhodotorula pilimanae by microbroth dilution assay; type: functional
[15] = system: Enterococcus faecalis; assay: Antibacterial activity against Enterococcus faecalis ATCC 29212 by microbroth dilution assay; type: functional
[16] = system: Staphylococcus aureus; assay: Antibacterial activity against Staphylococcus aureus ATCC 25923 by microbroth dilution assay; type: functional
[17] = system: Klebsiella pneumoniae; assay: Antibacterial activity against Klebsiella pneumoniae […] by microbroth dilution assay; type: functional
[18] = system: Pseudomonas aeruginosa; assay: Antibacterial activity against Pseudomonas aeruginosa ATCC 27853 by microbroth dilution assay; type: functional
[19] = system: Klebsiella pneumoniae; assay: Antibacterial activity against Klebsiella pneumoniae ATCC 700603 by microbroth dilution assay; type: functional
[20] = Hemolytic activity in sheep RBC relative to control; type: ADME, cell-based, Ovis aries, Erythrocyte; conditions: sheep red blood cells (erythrocytes), read-out: Activity
[21] = system: Globisporangium irregulare; assay: Antifungal activity against Pythium irregulare by microbroth dilution assay; type: functional
[22] = system: Botrytis cinerea; assay: Antifungal activity against Bortrytis cinerea by microbroth dilution assay; type: functional
[23] = system: Phoma; assay: Antifungal activity against Phoma spp. by microbroth dilution assay; type: functional
[24] = system: Phytophthora nicotianae; assay: Antifungal activity against Phytophthora parasitica by microbroth dilution assay; type: functional
[25] = system: Curvularia brachyspora; assay: Antifungal activity against Curvularia brachyspora by microbroth dilution assay; type: functional
[26] = system: Globisporangium ultimum; assay: Antifungal activity against Pythium ultimum by microbroth dilution assay; type: functional
[27] = system: Rhizopus stolonifer; assay: Antifungal activity against Rhizopus stolonifer by microbroth dilution assay; type: functional
[28] = system: Ulocladium; assay: Antifungal activity against Ulocladium spp. by microbroth dilution assay; type: functional; conditions: Alternaria sect. Ulocladium
[29] = system: Cladosporium cladosporioides; assay: Antifungal activity against Cladosporium cladosporioides by microbroth dilution assay; type: functional

With `CCCCCCCCO[C@@H]1[C@@H](O)[C@@H](O[C@@H]2[C@@H](O)[C@H](O[C@H]3O[C@H](CN)[C@@H](O)[C@H](O)[C@H]3N)[C@@H](N)C[C@H]2N)O[C@H](CO)[C@H]1O` the MIC [1] was 62.5 µg/mL (≈ 105 µM).

Molecule `CCCCCCCOC[C@H]1O[C@H](O[C@@H]2[C@@H](O)[C@H](O[C@H]3O[C@H](CN)[C@@H](O)[C@H](O)[C@H]3O)[C@@H](N)C[C@H]2N)[C@H](O)[C@@H](N)[C@@H]1OCCCCCCC` has an MIC [2] of 15.6 µg/mL (≈ 22.9 µM), an MIC [3] of 125 µg/mL (≈ 184 µM) and an MIC [4] of 125 µg/mL (≈ 184 µM). It also gave an MIC [5] of 500 µg/mL (≈ 734 µM).

For `CCCCCCCCO[C@H]1[C@@H](O[C@@H]2[C@@H](O)[C@H](O[C@H]3O[C@H](CN)[C@@H](O)[C@H](O)[C@H]3N)[C@@H](N)C[C@H]2N)O[C@H](CO)[C@@H](O)[C@@H]1O`, the MIC [1] was 20 µg/mL (≈ 33.5 µM).

Molecule `OC(Cc1ccccc1Cl)(Cn1nc[nH]c1=S)C1(Cl)CC1` (configuration not stated) [PROTHIOCONAZOLE] has an Activity [6] of 0.7 ppm and an Activity [7] of 1.1 ppm.

In the case of `COC(=O)N(OC)c1ccccc1COc1ccn(-c2ccc(Cl)cc2)n1` [PYRACLOSTROBIN], the Activity [8] is reported as 1.3 ppm and the Activity [9] is reported as 1.2 ppm.

`NC[C@H]1O[C@H](O[C@H]2[C@H](O)[C@@H](O[C@H]3O[C@H](CO)[C@@H](O)[C@H](N)[C@H]3O)[C@H](N)C[C@@H]2N)[C@H](N)[C@@H](O)[C@@H]1O` [BEKANAMYCIN] showed an MIC [10] of over 250 µg/mL, an MIC [11] of 1.95 µg/mL (≈ 4.03 µM) and an MIC [12] of over 250 µg/mL. The MIC [13] was over 250 µg/mL, the MIC [14] was over 250 µg/mL and the MIC [15] was under 0.98 µg/mL. It also gave an MIC [1] of over 250 µg/mL, an MIC [16] of under 0.98 µg/mL and an MIC [17] of 1.95 µg/mL (≈ 4.03 µM). The MIC [18] was 1.95 µg/mL (≈ 4.03 µM) and the MIC [19] was 1.95 µg/mL (≈ 4.03 µM).

Work on `CCCCCCO[C@H]1[C@H](N)[C@@H](O)[C@@H](O[C@@H]2[C@@H](O)[C@H](O[C@H]3O[C@H](CN)[C@@H](O)[C@H](O)[C@H]3O)[C@@H](N)C[C@H]2N)O[C@@H]1CO` yielded an MIC [2] of 31.3 µg/mL (≈ 55 µM), an MIC [3] of at least 250 µg/mL and an MIC [4] of 64 µg/mL (≈ 113 µM). The MIC [5] was over 500 µg/mL.

In the case of `CCCCCCCCO[C@H]1[C@H](O)[C@@H](O)[C@@H](O[C@@H]2[C@@H](O)[C@H](O[C@H]3O[C@H](CN)[C@@H](O)[C@H](O)[C@H]3N)[C@@H](N)C[C@H]2N)O[C@@H]1C`, the MIC [10] is reported as 7.8 µg/mL (≈ 13.4 µM), the hemolysis [20] is reported as under 20% and the MIC [21] is reported as 15.6 µg/mL (≈ 26.9 µM). The MIC [11] was 125 to 250 µg/mL (≈ 215 to 431 µM), the MIC [12] was 31.3 µg/mL (≈ 53.9 µM) and the MIC [22] was 31.3 µg/mL (≈ 53.9 µM). For the same molecule, the MIC [23] was 31.3 µg/mL (≈ 53.9 µM), the MIC [24] was 15.6 µg/mL (≈ 26.9 µM) and the MIC [13] was 31.3 µg/mL (≈ 53.9 µM). The MIC [25] was 31.3 µg/mL (≈ 53.9 µM), the MIC [26] was 15.6 µg/mL (≈ 26.9 µM) and the MIC [14] was 7.8 µg/mL (≈ 13.4 µM). For the same molecule, the MIC [27] was 31.3 µg/mL (≈ 53.9 µM), the MIC [15] was 125 to 250 µg/mL (≈ 215 to 431 µM) and the MIC [28] was 7.8 µg/mL (≈ 13.4 µM). The MIC [1] was 7.8 µg/mL (≈ 13.4 µM), the MIC [16] was 250 µg/mL (≈ 431 µM) and the MIC [17] was 250 µg/mL (≈ 431 µM). For the same molecule, the MIC [18] was 250 µg/mL (≈ 431 µM), the MIC [29] was 31.3 µg/mL (≈ 53.9 µM) and the MIC [19] was 250 µg/mL (≈ 431 µM).

Work on `CCCCCCOC[C@H]1O[C@H](O[C@@H]2[C@@H](O)[C@H](O[C@H]3O[C@H](CN)[C@@H](O)[C@H](O)[C@H]3O)[C@@H](N)C[C@H]2N)[C@H](O)[C@@H](N)[C@@H]1OCCCCCC` yielded an MIC [2] of 15.6 µg/mL (≈ 23.9 µM), an MIC [3] of at least 250 µg/mL and an MIC [4] of 64 µg/mL (≈ 98 µM). It also gave an MIC [5] of 500 µg/mL (≈ 766 µM).

`CCCCOC[C@H]1O[C@H](O[C@@H]2[C@@H](O)[C@H](O[C@H]3O[C@H](CN)[C@@H](O)[C@H](O)[C@H]3O)[C@@H](N)C[C@H]2N)[C@H](O)[C@@H](N)[C@@H]1OCCCC` showed an MIC [2] of 125 µg/mL (≈ 209 µM), an MIC [3] of at least 250 µg/mL and an MIC [4] of at least 250 µg/mL. The MIC [5] was over 500 µg/mL.

For `CCCCO[C@H]1[C@H](N)[C@@H](O)[C@@H](O[C@@H]2[C@@H](O)[C@H](O[C@H]3O[C@H](CN)[C@@H](O)[C@H](O)[C@H]3O)[C@@H](N)C[C@H]2N)O[C@@H]1CO`, the MIC [2] was at least 500 µg/mL, the MIC [3] was at least 250 µg/mL and the MIC [4] was 125 µg/mL (≈ 231 µM). For the same molecule, the MIC [5] was over 500 µg/mL.

For `CCCCCCCCCOC[C@H]1O[C@H](O[C@@H]2[C@@H](O)[C@H](O[C@H]3O[C@H](CN)[C@@H](O)[C@H](O)[C@H]3O)[C@@H](N)C[C@H]2N)[C@H](O)[C@@H](N)[C@@H]1OCCCCCCCCC`, the MIC [2] was 125 µg/mL (≈ 170 µM), the MIC [3] was 16 µg/mL (≈ 21.7 µM) and the MIC [4] was 8 µg/mL (≈ 10.9 µM). It also gave an MIC [5] of 500 µg/mL (≈ 678 µM).
